According to ChEMBL document CHEMBL1201862, “PubChem BioAssay data set” (2004):
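How tested: cells in 96-well plates exposed to compound for 48 hours at five concentrations. GI50 = concentration required for 50% inhibition of growth.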 Activity calls are given as the source filed them. Cut-off read from the data, not from the text of the source: active = GI50 up to about 1.1 µM and inactive = higher.

What was measured:
Assay in all cases: DTP human tumour cell line panel, 48 h
UACC-257 = system: UACC-257
SF-295 = system: SF-295
NCI-H226 = system: NCI-H226
SN12C = system: SN12C
SNB-19 = system: SNB-19
SK-MEL-2 = system: SK-MEL-2
HT-29 = system: HT-29
M19-MEL = system: M19-MEL
HCT-15 = system: HCT-15
K562 = system: K562
HCC 2998 = system: HCC 2998
MOLT-4 = system: MOLT-4
KM-20L2 = system: KM-20L2
UACC-62 = system: UACC-62
LXFL 529 = system: LXFL 529
LOX IMVI = system: LOX IMVI
SNB-78 = system: SNB-78
CCRF-CEM = system: CCRF-CEM
COLO 205 = system: COLO 205
HOP-92 = system: HOP-92
IGROV-1 = system: IGROV-1
SW-620 = system: SW-620
KM12 = system: KM12
DMS-114 = system: DMS-114
OVCAR-3 = system: OVCAR-3
Malme-3M = system: Malme-3M
A549 = system: A549
CAKI-1 = system: CAKI-1
ACHN = system: ACHN
HL-60 = system: HL-60
HOP-62 = system: HOP-62
A498 = system: A498
SF-539 = system: SF-539
U-251 = system: U-251
UO-31 = system: UO-31
NCI-H522 = system: NCI-H522
SNB-75 = system: SNB-75
OVCAR-4 = system: OVCAR-4
NCI-H23 = system: NCI-H23
HCT-116 = system: HCT-116
EKVX = system: EKVX
SF-268 = system: SF-268
SK-MEL-5 = system: SK-MEL-5
NCI-H460 = system: NCI-H460
DMS-273 = system: DMS-273
786-0 = system: 786-0
TK-10 = system: TK-10
OVCAR-8 = system: OVCAR-8
M14 = system: M14
SK-MEL-28 = system: SK-MEL-28
SK-OV-3 = system: SK-OV-3
OVCAR-5 = system: OVCAR-5
DLD-1 = system: DLD-1
RPMI-8226 = system: RPMI-8226
SR = system: SR
PC-3 = system: PC-3
MDA-N = system: MDA-N
MCF7 = system: MCF7
RXF 393 = system: RXF 393
Hs-578T = system: Hs-578T
T47D = system: T47D
BT-549 = system: BT-549
MDA-MB-435 = system: MDA-MB-435
MDA-MB-231 = system: MDA-MB-231
DU-145 = system: DU-145
NCI/ADR-RES = system: NCI/ADR-RES

Nc1ccc(C(=O)NN2C(=O)C(Cl)C2c2cccc(O)c2)cc1 (stereo unspecified)
GI50 (UACC-257): 18.3 µM (inactive)
GI50 (SF-295): 18.3 µM (inactive)
GI50 (NCI-H226): 18.5 µM (inactive)
GI50 (SN12C): 17.8 µM (inactive)
GI50 (SNB-19): 16.9 µM (inactive)
GI50 (SK-MEL-2): 15 µM (inactive)
GI50 (HT-29): 17.4 µM (inactive)
GI50 (M19-MEL): 21.5 µM (inactive)
GI50 (HCT-15): 12.7 µM
GI50 (K562): 10.8 µM (inactive)
GI50 (HCC 2998): 15.8 µM (inactive)
GI50 (MOLT-4): 11.3 µM (inactive)
GI50 (KM-20L2): 17.1 µM (inactive)
GI50 (UACC-62): 14.8 µM (inactive)
GI50 (LXFL 529): 11.7 µM (inactive)
GI50 (LOX IMVI): 3.85 µM (inactive)
GI50 (SNB-78): 17.5 µM (inactive)
GI50 (CCRF-CEM): 5.55 µM (inactive)
GI50 (COLO 205): 17.1 µM (inactive)
GI50 (HOP-92): 17.4 µM (inactive)
GI50 (IGROV-1): 14.4 µM (inactive)
GI50 (SW-620): 19.2 µM (inactive)
GI50 (KM12): 10.7 µM (inactive)
GI50 (DMS-114): 5.45 µM (inactive)
GI50 (OVCAR-3): 15.8 µM (inactive)
GI50 (Malme-3M): 20.3 µM (inactive)
GI50 (A549): 19.8 µM (inactive)
GI50 (CAKI-1): 20.4 µM (inactive)
GI50 (ACHN): 17.5 µM (inactive)
GI50 (HL-60): 1.69 µM (inactive)
GI50 (HOP-62): 15.4 µM (inactive)
GI50 (A498): 35.2 µM (inactive)
GI50 (SF-539): 17.1 µM (inactive)
GI50 (U-251): 12.5 µM (inactive)
GI50 (UO-31): 19.7 µM (inactive)
GI50 (NCI-H522): 1.75 µM (inactive)
GI50 (SNB-75): 22.3 µM (inactive)
GI50 (OVCAR-4): 16.7 µM (inactive)
GI50 (NCI-H23): 15.5 µM (inactive)
GI50 (HCT-116): 4.4 µM (inactive)
GI50 (EKVX): 21.5 µM (inactive)
GI50 (SF-268): 3.34 µM (inactive)
GI50 (SK-MEL-5): 17.6 µM (inactive)
GI50 (NCI-H460): 14 µM (inactive)
GI50 (DMS-273): 11 µM (inactive)
GI50 (786-0): 13.4 µM (inactive)
GI50 (TK-10): 16.7 µM (inactive)
GI50 (OVCAR-8): 19.9 µM (inactive)
GI50 (M14): 19.4 µM (inactive)
GI50 (SK-MEL-28): 16.9 µM (inactive)
GI50 (SK-OV-3): 19.5 µM (inactive)
GI50 (OVCAR-5): 22.2 µM (inactive)
GI50 (DLD-1): 14.4 µM (inactive)
GI50 (RPMI-8226): 14.7 µM (inactive)

CCCNC1CC(n2cc(C)c(=O)[nH]c2=O)OC1CO (stereo unspecified)
GI50 (NCI-H226): > 100 µM (inactive)
GI50 (SN12C): > 100 µM (inactive)
GI50 (SK-MEL-2): > 100 µM (inactive)
GI50 (M19-MEL): > 100 µM (inactive)
GI50 (K562): > 100 µM (inactive)
GI50 (HCC 2998): > 100 µM (inactive)
GI50 (MOLT-4): > 100 µM (inactive)
GI50 (UACC-62): > 100 µM (inactive)
GI50 (LXFL 529): > 100 µM (inactive)
GI50 (SNB-78): > 100 µM (inactive)
GI50 (CCRF-CEM): > 100 µM (inactive)
GI50 (COLO 205): > 100 µM (inactive)
GI50 (HOP-92): > 100 µM (inactive)
GI50 (IGROV-1): > 100 µM (inactive)
GI50 (DMS-114): > 100 µM (inactive)
GI50 (Malme-3M): > 100 µM (inactive)
GI50 (CAKI-1): > 100 µM (inactive)
GI50 (ACHN): > 100 µM (inactive)
GI50 (HL-60): > 100 µM (inactive)
GI50 (HOP-62): > 100 µM (inactive)
GI50 (SF-539): > 100 µM (inactive)
GI50 (UO-31): > 100 µM (inactive)
GI50 (NCI-H522): > 100 µM (inactive)
GI50 (SNB-75): > 100 µM (inactive)
GI50 (OVCAR-4): > 100 µM (inactive)
GI50 (NCI-H23): > 100 µM (inactive)
GI50 (HCT-116): > 100 µM (inactive)
GI50 (SF-268): > 100 µM (inactive)
GI50 (NCI-H460): > 100 µM (inactive)
GI50 (DMS-273): > 100 µM (inactive)
GI50 (SR): > 100 µM (inactive)
GI50 (786-0): > 100 µM (inactive)
GI50 (M14): > 100 µM (inactive)
GI50 (SK-MEL-28): > 100 µM (inactive)
GI50 (SK-OV-3): > 100 µM (inactive)
GI50 (DLD-1): > 100 µM (inactive)
GI50 (RPMI-8226): > 100 µM (inactive)

N=C(N)NCCCC(NCc1c2ccccc2nc2ccccc12)C(=O)O (stereo unspecified)
GI50 (UACC-257): 33.7 µM (inactive)
GI50 (SF-295): 48 µM (inactive)
GI50 (NCI-H226): > 81.8 µM (inactive)
GI50 (SN12C): 39.2 µM (inactive)
GI50 (SNB-19): 48.4 µM (inactive)
GI50 (SK-MEL-2): 41 µM (inactive)
GI50 (HT-29): 18.9 µM (inactive)
GI50 (M19-MEL): 58.7 µM (inactive)
GI50 (HCT-15): 29.4 µM
GI50 (PC-3): 35.2 µM (inactive)
GI50 (K562): 10.1 µM (inactive)
GI50 (MDA-N): 37.2 µM (inactive)
GI50 (HCC 2998): 33.5 µM (inactive)
GI50 (MCF7): 32 µM (inactive)
GI50 (MOLT-4): 8 µM (inactive)
GI50 (KM-20L2): 29.4 µM (inactive)
GI50 (RXF 393): 57 µM (inactive)
GI50 (UACC-62): 31.3 µM (inactive)
GI50 (LXFL 529): 38.5 µM (inactive)
GI50 (LOX IMVI): 26.2 µM (inactive)
GI50 (CCRF-CEM): 9.55 µM (inactive)
GI50 (COLO 205): 37.9 µM (inactive)
GI50 (HOP-92): 7.93 µM (inactive)
GI50 (IGROV-1): 34.7 µM (inactive)
GI50 (SW-620): 25.5 µM (inactive)
GI50 (KM12): 21.6 µM (inactive)
GI50 (DMS-114): 23.3 µM (inactive)
GI50 (OVCAR-3): 40.9 µM (inactive)
GI50 (Malme-3M): > 73.1 µM (inactive)
GI50 (A549): 37.2 µM (inactive)
GI50 (CAKI-1): 26.6 µM (inactive)
GI50 (ACHN): 31.5 µM (inactive)
GI50 (HL-60): 11 µM (inactive)
GI50 (Hs-578T): 69.7 µM (inactive)
GI50 (HOP-62): 37.1 µM (inactive)
GI50 (A498): > 100 µM (inactive)
GI50 (SF-539): 33 µM (inactive)
GI50 (U-251): 47.2 µM (inactive)
GI50 (UO-31): 23.6 µM (inactive)
GI50 (NCI-H522): 22.9 µM (inactive)
GI50 (SNB-75): 45.2 µM (inactive)
GI50 (OVCAR-4): 29.2 µM (inactive)
GI50 (NCI-H23): 53.1 µM (inactive)
GI50 (T47D): 36.2 µM (inactive)
GI50 (BT-549): 30.9 µM (inactive)
GI50 (HCT-116): 11.4 µM (inactive)
GI50 (MDA-MB-435): 41.8 µM (inactive)
GI50 (EKVX): 33.1 µM (inactive)
GI50 (SF-268): 47.6 µM (inactive)
GI50 (SK-MEL-5): > 41.8 µM (inactive)
GI50 (NCI-H460): 36.1 µM (inactive)
GI50 (DMS-273): 31.3 µM (inactive)
GI50 (SR): 14.3 µM (inactive)
GI50 (786-0): 31.3 µM (inactive)
GI50 (MDA-MB-231): 23.8 µM (inactive)
GI50 (DU-145): > 100 µM (inactive)
GI50 (TK-10): 49.5 µM (inactive)
GI50 (OVCAR-8): 25.7 µM (inactive)
GI50 (M14): 48.1 µM (inactive)
GI50 (SK-MEL-28): > 66.7 µM (inactive)
GI50 (SK-OV-3): 53.1 µM (inactive)
GI50 (OVCAR-5): > 100 µM (inactive)
GI50 (DLD-1): 17.3 µM (inactive)
GI50 (NCI/ADR-RES): 28.5 µM (inactive)
GI50 (RPMI-8226): 10.4 µM (inactive)
